Reference: patent US7993855B2, “Use of additives to lower the rate of a binding reaction” (Aokin AG, priority 2006, dated 2011)
Structures can show the parent of a compound that is named as a salt.

How the values were obtained:
anti-thyroxine [1] = test: Fluorescence polarization kinetic assay, F-thyroxine/anti-thyroxine system; assay type: binding; details: for Rate of the antibody reaction with increasing concentrations of additive: PBS with 5% 2-propanol, BSA 0.1 μM, Fluorescein-Thyroxine 1 nM, Anti-Thyroxine 1:300
Description: An initial stock solution of anti-thyroxine sera was prepared. In particular, 1 ml of polyclonal anti-thyroxine sera containing 10 mg/ml IgG (Sigma) was diluted 1:5 in PBS buffer, pH 7.5. The final concentration of IgG in the stock solution was about 2 mg/ml.
An initial stock solution of fluorescein-labeled analyte (F-thyroxine) was prepared. […] First, 5 mg (4×10^−6 moles) of F-thyroxine was diluted to 10 ml in PBS to get a 4.1×10^−4 M solution of F-thyroxine. This solution was then further diluted 100-fold in PBS. The final concentration of F-thyroxine in the stock solution was about 4.1×10^−6 M.
All steps are performed at ambient temperature. The total final reaction volume after all additions is 3030 μl. • 1. Add 20 μl or 0 μl (control) anti-sera stock solution to about 2980 μl of Buffer 1. • 2. Pipette the diluted anti-sera solution prepared in step 1 up and down from 1 to 10 seconds to thoroughly mix. • 3. Add between 0 and 20 μl thyroxine stock solution (e.g., 0, 0.5, 2.0, 5.0 and 20 μl) to the mixed anti-sera from step 2. • 4. Pipette the mixture formed in step 3 up and down for 1 to 10 seconds and then incubate for 30 to 300 seconds. • 5. Add 10 μl of the Fluorescein-labeled thyroxine stock solution to the incubated mixture from step 4. • 6. Pipette the mixture formed in step 5 up and down for 1 to 10 seconds and begin measuring polarization (P), Polarized Fluorescence Intensity Difference (V−H) or quenching (V+H total intensity) versus time for between 10 and 7200 seconds after end of mixing in a direct readout polarometer or between 0.1 and 7200 seconds after end of mixing with a stopped-flow polarometer. • 7. Determine the rate of reaction (initial rates) and plot versus amount of thyroxine stock solution added in step 3 to produce a standard curve. • 8. Against a standard curve, an unknown amount of thyroxine can be measured by comparison of initial rate measurement (speed of reaction) of unknown with the standard curve. […]

anti-thyroxine [2] = test: as above; assay type: binding; details: PBS with 4.75% 2-propanol, BSA 0.1 μM, Anti-Thyroxine 1:300
anti-thyroxine [3] = test: Fluorescence polarization kinetic assay, rhodamine-labeled thyroxine (ROX-T4)/anti-thyroxine system; assay type: binding; details: Rox-Thyroxine 1.5 nM, Anti-Thyroxine 1:300, PBS with 10% 2-propanol, serum 1:500
Description: The protocol used is described below. […] Use clean glassware, washed with isopropanol. • 2. Make a 0.5 M solution of sodium benzoate. • 3. […] This will be named BUFFER. • 4. […] The absorbance spectrum is measured using a UV-VIS spectrophotometer, 400 nm to 800 nm. This spectrum is used to define the absorbance of the background as zero and to control that it is actually zero. • 6. […] Measure the absorbance UV-VIS, 400 nm to 800 nm. […] Using a rotating polarometer with a 75 watt Xenon short-arc lamp. The rotating polarizer has three channels: Polarization (P), Total Intensity (V+H), and V−H. • 8. […] Measure P, V+H and V−H after short mixing and 30 second equilibration. […] Add 10 μl. Antibody solution (anti-thyroxine in PBS, dilution unknown, probably 5 mg in 1000 μl PBS and further diluted 1:10 in PBS). New volume is 3017 μl. Measure P, V+H and V−H after short mixing.

serum components = test: Initial non-specific binding between F-thyroxine and serum components (P at t=0); details: experiments 6-3 through 6-7: serum, increasing sodium benzoate; PBS with 10% 2-propanol
Description: The buffer and stock solutions described in Example 1 and the measurement methodology described in Example 2 were used.
• Fluorescein-Thyroxine (1 nM) • Anti-Thyroxine (1:300 dilution) • PBS with 10% 2-propanol • Benzoate in different concentrations • At t=0 s antibody was pipetted into the cuvette. • A 3 ml cuvette was used, the total volume in the cuvette was 2 ml. A small magnetic stirrer was used for mixing
In example 6, the reactions between F-Thyroxine and Anti-Thyroxine, which were carried out in the presence of serum under different reaction conditions, are compared (FIG. 4). There are seven different amounts of sodium benzoate, between 0 and 1.0 Molar in the cuvette. The reaction was performed in a phosphate buffered saline buffer containing 10% 2-propanol. The table in FIG. 4 lists the two important parameters.

human sera = test: Non-specific binding of F-thyroxine in presence of human sera; details: Buffer 2 (1.0 M sodium benzoate), 50 μl human sera, V−H over 10-600 s
Description: With reference to FIG. 2, experiments were performed to determine the effects of an additive on specific and non-specific binding. The additive used in the present example was sodium benzoate. The materials described in Example 1 and the measurement methodology described in Example 2 were used. In particular, 50 μl of human sera was added to 3000 μl of Buffer 2 or PBS at pH 7.5 (no additive control) and thoroughly mixed by pipetting for 1 to 10 seconds. To this was added 0 μl of unlabeled thyroxine and 0 μl, 20 μl or 50 μl of anti-sera stock solution. The mixture was thoroughly mixed by pipetting for 1 to 10 seconds. Then, 5 μl of the fluorescein-labeled thyroxine stock solution was added. This was followed by mixing for 1 to 10 seconds by pipetting. Then, d(V−H)/dt measurements were made versus time for between 10 and 600 seconds. This protocol was followed for Experiments 6-9 in Table 2.

With N=C(N)N [guanidine hydrochloride] the “Rate of the antibody reaction with increasing concentrations of additive” value (anti-thyroxine [1]) was “substantially slowed”.

For O=C1CCC(=O)N1O [N-hydroxysuccinimide], the “Rate of the antibody reaction with increasing concentrations of additive” value (anti-thyroxine [2]; Fluorescein-Thyroxine 1.5 nM) was “substantially slowed”.

For O=C([O-])c1ccccc1.[Na+] [sodium benzoate], the “Rate of the reaction with increasing concentrations of additive” value (anti-thyroxine [3]) was “substantially slowed”, the “Reaction between F-thyroxine and its specific antibody capable of being followed (kinetic curve)” value (anti-thyroxine [1]; Buffer 1 (0.5 M sodium benzoate in PBS, pH 7.5) versus PBS) was “only capable of being followed when the reaction was performed in the presence of an additive” and the “Effect of additive on specific binding” value (anti-thyroxine [1]; Buffer 2 (1.0 M sodium benzoate), 50 μl human sera, 0/20/50 μl antiserum, V−H over 10-600 s) was “does not inhibit specific binding”. For the same compound, the “Rate of the antibody reaction with increasing concentrations of additive” value (anti-thyroxine [1]) was “substantially slowed”, the “Reaction rate relative to its value from zero additive agent” value (anti-thyroxine [1]; experiments 6-3 through 6-7: serum, increasing sodium benzoate, PBS with 10% 2-propanol) was “about 30%” and the “Polarization value before addition of antibody (t=0)” value (serum components) was 100 mP. The “Effect of additive on non-specific binding” value (human sera) was “inhibits non-specific binding”.

In the case of O=C([O-])c1ccccc1.[K+] [potassium benzoate], the “Rate of the antibody reaction with increasing concentrations of additive” value (anti-thyroxine [2]; Fluorescein-Thyroxine 1 nM) is reported as “substantially slowed”.

O=C([O-])C(Cl)Cl.[Na+] [sodium dichloroacetate] was tested, and the “Rate of the antibody reaction with increasing concentrations of additive” value (anti-thyroxine [2]; Fluorescein-Thyroxine 1 nM) was “substantially slowed”.

In the case of Cc1ccc(S(=O)(=O)O)cc1.[Na] [sodium p-tolulene sulfonate, sodium p-toluene sulfonate], the “Rate of the antibody reaction with increasing concentrations of additive” value (anti-thyroxine [1]) is reported as “substantially slowed”.

With [Cl-].[Na+] [sodium chloride] the “Rate of the antibody reaction with increasing concentrations of additive” value (anti-thyroxine [2]; Fluorescein-Thyroxine 1.5 nM) was “not substantially slowed”.

For O=C([O-])CCl.[Na+] [sodium chloroacetate], the “Rate of the antibody reaction with increasing concentrations of additive” value (anti-thyroxine [2]; Fluorescein-Thyroxine 1 nM) was “substantially slowed”.
